Drawing on ChEMBL document CHEMBL1145206, “Design, synthesis and structure-activity relationships of novel taxane-based multidrug resistance reversal agents” (2005), this text covers Reduction for 5 molecules.

One assay has as its system MCF7R. Briefly: MDR-reversal activity evaluated against the resistant human breast tumor cell line MCF7-R. It is filed as functional. Also on record: concentration or dose not given beside the values.
Another assay deals with MDA-MB-435. Briefly: MDR-reversal activity evaluated against the resistant human breast tumor cell line MDA-435/LCC6-MDR. Type of assay: functional. On the set-up: concentration or dose not given beside the values.

As to `CC(=O)O[C@H]1C(=O)[C@]2(C)[C@@H](OC(=O)/C=C/c3ccc(C(=O)c4ccccc4)cc3)C[C@H]3OC[C@@]3(OC(C)=O)[C@H]2[C@H](OC(=O)c2ccccc2)[C@]2(O)C[C@H](OC(C)=O)C(C)=C1C2(C)C`, the Reduction with MCF7R is recorded as 99.7%; in the assay with MDA-MB-435, 92%.

Consider `CC(=O)O[C@H]1C(=O)[C@]2(C)[C@@H](OC(=O)/C=C/c3cccc4ccccc34)C[C@H]3OC[C@@]3(OC(C)=O)[C@H]2[C@H](OC(=O)c2ccccc2)[C@]2(O)C[C@H](O)C(C)=C1C2(C)C`, for which the values for the Reduction with MCF7R and in the assay with MDA-MB-435 were 96% and 50%, respectively.

Take `CC(=O)O[C@H]1C(=O)[C@]2(C)[C@@H](OC(=O)CCc3cccc4ccccc34)C[C@H]3OC[C@@]3(OC(C)=O)[C@H]2[C@H](OC(=O)c2ccccc2)[C@]2(O)C[C@H](O)C(C)=C1C2(C)C`: the Reduction with MCF7R is given as 96%.

In the case of `CC(=O)O[C@@]12CO[C@@H]1C[C@H](OC(=O)/C=C/c1ccc3ccccc3c1)[C@@]1(C)C(=O)[C@H](OC(=O)/C=C/c3ccc4ccccc4c3)C3=C(C)[C@@H](O)C[C@@](O)([C@@H](OC(=O)c4ccccc4)[C@H]21)C3(C)C`, in the assay with MCF7R, the Reduction was 45%.

On to `CC(=O)O[C@@]12CO[C@@H]1C[C@H](OC(=O)/C=C/c1ccc3ccccc3c1)[C@@]1(C)C(=O)[C@H](OC(=O)CCc3ccc(C(=O)c4ccccc4)cc3)C3=C(C)[C@@H](O)C[C@@](O)([C@@H](OC(=O)c4ccccc4)[C@H]21)C3(C)C`, for which the Reduction with MCF7R came to 0%.
